From PubChem BioAssay (NCI)
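At the GI50, growth is halved. TGI is the concentration that stops growth completely.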

How the values were obtained:
Assay in all cases: DTP human tumour cell line panel, 384-well format
NCI/ADR-RES ovarian = system: NCI/ADR-RES ovarian
COLO 205 colon = system: COLO 205 colon
SN12C renal = system: SN12C renal
IGROV1 ovarian = system: IGROV1 ovarian
HCT-15 colon = system: HCT-15 colon
OVCAR-8 ovarian = system: OVCAR-8 ovarian
BT-549 breast = system: BT-549 breast
ACHN renal = system: ACHN renal
DU-145 prostate = system: DU-145 prostate
HT29 colon = system: HT29 colon
SF-268 CNS = system: SF-268 CNS
LOX IMVI melanoma = system: LOX IMVI melanoma
RPMI-8226 leukemia = system: RPMI-8226 leukemia
SNB-19 CNS = system: SNB-19 CNS
A549 NSCLC = system: A549 NSCLC
UO-31 renal = system: UO-31 renal
SNB-75 CNS = system: SNB-75 CNS
MDA-MB-231 breast = system: MDA-MB-231 breast
786-0 renal = system: 786-0 renal
MOLT-4 leukemia = system: MOLT-4 leukemia
PC-3 prostate = system: PC-3 prostate
HOP-62 NSCLC = system: HOP-62 NSCLC
SW-620 colon = system: SW-620 colon
SK-OV-3 ovarian = system: SK-OV-3 ovarian
SF-539 CNS = system: SF-539 CNS
EKVX NSCLC = system: EKVX NSCLC
MCF7 breast = system: MCF7 breast
KM12 colon = system: KM12 colon
NCI-H226 lung = system: NCI-H226 lung
RXF 393 renal = system: RXF 393 renal
T-47D breast = system: T-47D breast
NCI-H322M lung = system: NCI-H322M lung
NCI-H522 lung = system: NCI-H522 lung
MDA-MB-468 breast = system: MDA-MB-468 breast
K-562 leukemia = system: K-562 leukemia
HOP-92 NSCLC = system: HOP-92 NSCLC
TK-10 renal = system: TK-10 renal
CCRF-CEM leukemia = system: CCRF-CEM leukemia
SF-295 CNS = system: SF-295 CNS
HCC-2998 colon = system: HCC-2998 colon
CAKI-1 renal = system: CAKI-1 renal
OVCAR-5 ovarian = system: OVCAR-5 ovarian
MALME-3M melanoma = system: MALME-3M melanoma
UACC-257 melanoma = system: UACC-257 melanoma
OVCAR-4 ovarian = system: OVCAR-4 ovarian
NCI-H460 NSCLC = system: NCI-H460 NSCLC
UACC-62 melanoma = system: UACC-62 melanoma
NCI-H23 lung = system: NCI-H23 lung
U251 glioblastoma = system: U251 glioblastoma
SR leukemia = system: SR leukemia
SK-MEL-28 melanoma = system: SK-MEL-28 melanoma
SK-MEL-5 melanoma = system: SK-MEL-5 melanoma
M14 melanoma = system: M14 melanoma
HL-60(TB) leukemia = system: HL-60(TB) leukemia
A498 renal = system: A498 renal
MDA-MB-435 melanoma = system: MDA-MB-435 melanoma
HS 578T breast = system: HS 578T breast

## CCC[C@H](N[C@@H]1CCc2cc(F)cc(F)c2C1)C(=O)Nc1cn(C(C)(C)CNCC(C)(C)C)cn1
NCI/ADR-RES ovarian
  GI50: 10.9 µM
  TGI: 24.3 µM
COLO 205 colon
  GI50: 13.1 µM
  TGI: 36.1 µM
SN12C renal
  GI50: 19.4 µM
  TGI: 42.9 µM
IGROV1 ovarian
  GI50: 17.3 µM
  TGI: 44.6 µM
HCT-15 colon
  GI50: 8.15 µM
  TGI: 21.3 µM
OVCAR-8 ovarian
  GI50: 16.1 µM
  TGI: 36.5 µM
BT-549 breast
  GI50: 9.95 µM
  TGI: 22.1 µM
ACHN renal
  GI50: 15.4 µM
  TGI: 35.2 µM
DU-145 prostate
  GI50: 17.2 µM
  TGI: 48.8 µM
HT29 colon
  GI50: 11 µM
  TGI: 23.7 µM
SF-268 CNS
  GI50: 15.3 µM
  TGI: 31.3 µM
LOX IMVI melanoma
  GI50: 17.8 µM
  TGI: 31.9 µM
RPMI-8226 leukemia
  GI50: 0.358 µM
  TGI: 11.2 µM
SNB-19 CNS
  GI50: 16.8 µM
  TGI: 39.7 µM
A549 NSCLC
  GI50: 13.9 µM
  TGI: 46.8 µM
UO-31 renal
  GI50: 14.6 µM
  TGI: 28.5 µM
SNB-75 CNS
  GI50: 15.8 µM
  TGI: 42.8 µM
MDA-MB-231 breast
  GI50: 12.3 µM
  TGI: 27.1 µM
786-0 renal
  GI50: 13.4 µM
  TGI: 26.5 µM
MOLT-4 leukemia
  GI50: 4.04 µM
  TGI: 15.2 µM
PC-3 prostate
  GI50: 7.53 µM
  TGI: 21.4 µM
HOP-62 NSCLC
  GI50: 15.6 µM
  TGI: 30.1 µM
SW-620 colon
  GI50: 16.2 µM
  TGI: 32.2 µM
SK-OV-3 ovarian
  GI50: 14.2 µM
  TGI: 29.5 µM
SF-539 CNS
  GI50: 16.5 µM
  TGI: 30.3 µM
EKVX NSCLC
  GI50: 14.5 µM
  TGI: 44.7 µM
MCF7 breast
  GI50: 5.11 µM
  TGI: 19.8 µM
KM12 colon
  GI50: 14.6 µM
  TGI: 29.8 µM
NCI-H226 lung
  GI50: 13.8 µM
  TGI: 28.3 µM
RXF 393 renal
  GI50: 10.7 µM
  TGI: 24.1 µM
T-47D breast
  GI50: 2.11 µM
  TGI: 17 µM
NCI-H322M lung
  GI50: 20.8 µM
  TGI: 55.4 µM
NCI-H522 lung
  GI50: 13.2 µM
  TGI: 28.8 µM
MDA-MB-468 breast
  TGI: 1.75 µM
K-562 leukemia
  GI50: 10.6 µM
  TGI: 22.8 µM
HOP-92 NSCLC
  GI50: 11.7 µM
  TGI: 24.1 µM
TK-10 renal
  GI50: 16 µM
  TGI: 46 µM
CCRF-CEM leukemia
  GI50: 7.5 µM
  TGI: 21 µM
SF-295 CNS
  GI50: 13.8 µM
  TGI: 26.9 µM
HCC-2998 colon
  GI50: 6.98 µM
  TGI: 19.9 µM
CAKI-1 renal
  GI50: 14.4 µM
  TGI: 29.5 µM
OVCAR-5 ovarian
  GI50: 19.7 µM
  TGI: 49.4 µM
MALME-3M melanoma
  GI50: 2.14 µM
  TGI: 12.2 µM
UACC-257 melanoma
  GI50: 0.535 µM
  TGI: 18.4 µM
OVCAR-4 ovarian
  GI50: 1.09 µM
  TGI: 35.9 µM
NCI-H460 NSCLC
  GI50: 14.9 µM
  TGI: 28.9 µM
UACC-62 melanoma
  GI50: 15.7 µM
  TGI: 29.3 µM
NCI-H23 lung
  GI50: 11.9 µM
  TGI: 26 µM
U251 glioblastoma
  GI50: 15.5 µM
  TGI: 29.3 µM
SR leukemia
  GI50: 4.2 µM
  TGI: 16.2 µM
SK-MEL-28 melanoma
  GI50: 12.7 µM
  TGI: 25.9 µM
SK-MEL-5 melanoma
  GI50: 11.2 µM
  TGI: 23.4 µM
M14 melanoma
  GI50: 13.8 µM
  TGI: 27 µM
HL-60(TB) leukemia
  GI50: 2.77 µM
  TGI: 14.5 µM
A498 renal
  GI50: 10.5 µM
  TGI: 22.8 µM
MDA-MB-435 melanoma
  GI50: 16.6 µM
  TGI: 35.1 µM
HS 578T breast
  GI50: 12.3 µM
  TGI: 25.1 µM
